Test results taken from US9932300B2, “N,N′-diarylurea compounds and N,N′-diarylthiourea compounds as inhibitors of translation initiation” (President and Fellows of Harvard College, priority 2009, dated 2018).

Tested on: eIF2-GTP-Met-tRNAi ternary complex
Assay: Ternary complex assay (dual luciferase, firefly/renilla ratio) in stable KLN-tTA/pBISA-DL(ATF-4) cells; HTS and hit confirmation
Format: cell-based, mouse
Parameters: Activity 10 uM / Activity 2.5 uM / Activity 5 uM: unit not given here
Settings: for Activity 2.5 uM: compound at 2.5 uM; for Activity 2.5 uM / Activity 10 uM / Activity 5 uM: confirmed hits of the screen (Table 5); for Activity 10 uM: compound at 10 uM; for Activity 5 uM: compound at 5 uM
Text: For assay development, a bi-directional plasmid was designed in which a common promoter/enhancer complex drives the transcription of firefly luciferase (F-luc) ORF fused to the 5′ untranslated region (UTR) of ATF-4, and of the renilla luciferase (R-luc) ORF fused to a 90-nucleotide 5′ UTR derived from the plasmid (FIG. 6A). Because the tetracycline-regulated transactivator ((tTA), required for driving transcription from this vector) is not normally expressed in the mammalian cells, stable KLN cancer cells were constructed that expressed tTA (KLN-tTA).
The KLN-tTA colonies that drove expression of reporter genes from pBISA-DL plasmid were selected by transient transfection and dual luciferase assay. One of these KLN-tTA cell lines was transfected with the pBISA-DL^(ATF-4) expression vector, stable colonies were selected by dual luciferase assay and expanded. To determine if reduced availability of the eIF2*GTP*Met-tRNAi ternary complex increased the translation of firefly luciferase and decreased translation of renilla luciferase, selected KLN-tTA/pBISA-DL^(AFT-4) colonies were treated with thapsigargin (TG) or tunicamycin (TU), two agents known to cause phosphorylation of eIF2α.
This assay was then adapted for high throughput screening in 96 and 384 well plates. This was done by evaluating the cell density, length of exposure to compounds, DMSO tolerance and optimum firefly and renilla substrate. We then challenged these cells with thapsigargin or DMSO. […] Cell-based assays usually have higher variation than homogeneous in vitro assays due to position effect in the plate, and other variables associated with handling of cells and the plates.
Screening was conducted in 384 well white opaque plates (Nalge Nunc), 100 μl volume RPMI+10% fetal bovine serum. Cells were plated at the sub-confluent density of 10,000 cells/well, and allowed to attach for a period of 16-18 hours at 37° C., 5% CO2. Compounds were added as 1 μl of a 1 mM DMSO stock solution for a final screening concentration of 10 μM, using low-volume tips for transfer (Molecular Bioproducts). Cells were then incubated in the presence of compound for an additional sixteen hours, again at 37° C., 5% CO2. Following incubation 70 μl of the culture medium was removed from each well to allow for reagent addition and plates were allowed to equilibrate to room temperature for thirty minutes. Firefly luciferase reporter activity was then read by the addition of thirty microliters of Dual Glo Luciferase reagent (Promega), followed by one hour incubation at room temperature to allow for adequate signal buildup. Luminescence counting was conducted on a Microbeta Trilux using a 1 second read time. Renilla luciferase reporter activity was measured following addition of 30 μl Stop and Glo Luciferase reagent (Promega) and incubation identical to the one carried out for the firefly luciferase one.
Compound scores were interpreted as firefly luciferase activity divided by renilla luciferase activity, normalized to the plate's DMSO control. […] All data analysis was conducted using the BioAssay HTS software package (CambridgeSoft).
102,709 compounds in the NCI Open Chemical Repository were then screened using this HTS assay. […] Initial hits were confirmed by repeating the same dual luciferase assay in 96 well plates. Briefly, 20,000 cells/well were plated in triplicate for each concentration (10, 5 and 2.5 μM) of the compounds.

SMILES | Activity 2.5 uM | Activity 10 uM | Activity 5 uM | Effect on firefly/renilla luciferase ratio (KLN-tTA/pBISA-DL(ATF-4) colonies, assay validation)
Oc1c(Cl)cc(Cl)cc1C1N(Cc2ccc(N(CCCl)CCCl)cc2)CCCN1Cc1ccc(N(CCCl)CCCl)cc1 [Compound 99639] | 0.7 | 8.32 | – | –
CC(/C=N/O)=N\O.CC(/C=N/O)=N\O.[Pd] [Compound 186948] | – | 4.4425 | 4.507 | –
OC(Br)C1C(c2ccccc2)N1C1CCCCC1 (stereo not drawn) [Compound 150279] | 0.62 | 3.9 | – | –
Nc1cccc2scnc12 [Compound 170680] | – | 6.8 | 2.7 | –
COc1ccc(N=C(C)C2C(=O)c3ccccc3C2=O)cc1 [Compound 343385] | – | 8.3265 | 11.2 | –
CN(C)c1ccc(N=Nc2ccc3c4c(cccc24)-c2ccccc2-3)cc1 [Compound 299107] | 8.13 | 279.99 | – | –
Oc1ccc(N=Nc2ccc(Cl)cc2)cc1 [Compound 402592] | 2.25 | 3.48 | – | –
Br.C/C(=C\c1ccccc1)C(=O)C(CN(C)C)CN(C)C [Compound 367620] | 0.49 | 16.04 | – | –
Cc1nc2ccc(Br)cc2c(=O)n1-c1ccc(NC2OC(CO)C(O)C(O)C2O)cc1 (stereo not drawn) [Compound 665512] | 0.47 | 15.46 | – | –
c1ccc2c(c1)cnc1cc3c(cc12)ncc1ccccc13 [Compound 113085] | 3.18 | 5.05 | – | –
O=Cc1cc(CCCCCCc2ccc(O)c(C=O)c2)ccc1O [Compound 88001] | – | 21.4655 | 12 | –
CCN(CC)C1=C/CC/C(c2ccccc2)=N/N=C\1c1ccccc1 [Compound 601076] | 2.48 | 3.17 | – | –
O=C1/C(=C/c2ccc(O)c(O)c2)CCC/C1=C\c1ccc(O)c(O)c1 [Compound 652890] | 2.23 | 7.57 | – | –
Cc1ccc(/C=C/c2ccc([N+](=O)[O-])cc2)cc1 [Compound 338462] | – | 6.4125 | 4.54 | –
CCc1ccc(N=Nc2ccc(Br)cc2)cc1 [Compound 106378] | 2.55 | 3.69 | – | –
CO[C@@]12[C@H](COC(N)=O)C3=C(C(=O)C(C)=C(N)C3=O)N1C[C@@H]1N[C@@H]12 [mitomycin, reference compound] | – | – | – | no effect
C=C1CC(C)(COc2ccc3c(C)cc(=O)oc3c2)OC1=O (stereo not drawn) [Compound 668262] | 0.78 | 3.33 | – | –
Cc1ccc(C(CN(C)C)C(=O)c2ccccc2)cc1C.Cl (stereo not drawn) [Compound 36684] | 0.76 | 4.2 | – | –
CCCCCCOC(=O)Nc1cccc(O)c1 [Compound 222612] | – | 2.88 | 4.521 | –
CSc1ccc(NC(=O)Nc2cccc(F)c2)cc1 [Compound 205787] | 1.79 | 4.39 | – | –
COc1ccc([N+](=O)[O-])c(C(OC(C)=O)OC(C)=O)c1OC(C)=O [Compound 95832] | 0.46 | 3.2 | – | –
Cn1ccnc1SC(F)(F)c1nc2ccccc2o1 [Compound 691258] | – | 3.904 | 3.891 | –
c1ccc(NNc2ccc3ccccc3n2)cc1 [Compound 1874] | 4.27 | 3.99 | – | –
